In a compilation of properties of binary mixtures (doi:10.1021/acs.jpcb.9b04724):

Assay: xn = mol fraction of the nth substance listed
Settings: 101 kPa

CCCC[N+](C)(CCCC)CCCC.N#C[N-]C#N + CC[n+]1ccn(C)c1.N#C[N-]C#N
viscosity [mPa·s]
Settings	293.15 K	303.15 K	313.15 K	323.15 K	333.15 K	343.15 K	353.15 K
x2 = 0	498	239	127.3	74.9	47.6	32	22.6
x2 = 0.2114	201	–	65.2	42.1	28.7	–	–
x2 = 0.3975	101.3	60.6	39.2	26.8	–	14.44	–
x2 = 0.6047	50.5	–	22.87	16.69	12.65	10.13	8.18
x2 = 0.8003	28.3	19.8	14.56	11.15	9.11	7.26	5.93

CC[n+]1ccn(C)c1.N#C[N-]C#N + CCCC[N+](C)(CCCC)CCCC.N#C[N-]C#N
x1 = 1
Settings	viscosity [mPa·s]
293.15 K	17.41
313.15 K	10.05
333.15 K	6.65
